In patent US4413007A, “Pesticidal symmetrical N-substituted bis-carbamoyloximino disulfide compounds” (priority 1978, dated 1983):

Assays:
Format in all cases: in vivo
[1] = tested on: house flies (Musca domestica, L.); assay: Fly Bait Test; parameters: key: A: excellent control; B: partial control; C: no control; conditions: 500 ppm in sugar solution, twenty four hours
Description: (§1) Suspensions of the test compounds were prepared by dissolving one gram of compound in 50 milliliters of acetone in which had been dissolved 0.1 gram (10 percent of the weight of compound) of an alkylphenoxy polyethoxyethanol surfactant, as an emulsifying or dispersing agent. The resulting solution was mixed into 150 milliliters of water to give roughly 200 milliliters of a suspension containing the compound in finely divided form. The thus-prepared stock suspension contained 0.5 percent by weight of compound. The test concentrations in parts per million by weight employed in the tests described hereinbelow were obtained by appropriate dilutions of the stock suspension with water. The test procedures were as follows:
Four to six day old adult house flies (Musca domestica, L.) reared according to the specifications of the Chemical Specialities Manufacturing Association (Blue Book, McNair-Dorland Co., N.Y. 1954; pages 243-244, 261) under controlled conditions of 80±5° F. and 50±5 percent relative humidity, were the test insects. The flies were immobilized by anesthetizing with carbon dioxide and twenty five immobilized individuals,males and females, were transferred to a cage consisting of a standard food strainer about five inches in diameter which was inverted over a wrapping-paper-covered surface. The test compounds were formulated by diluting the stock suspension with a 10 percent (by weight) sugar solution to give a suspension containing 500 parts of test compound per million parts of final formulation, by weight. Ten milliliters of the test formulation were added to a souffle cup containing a one-inch square of an absorbent cotton pad. This bait cup was introduced and centered on the blotting paper under the food strainer prior to admitting the anesthetized flies. The caged flies were allowed to feed on the bait for twenty four hours, at a temperature of 80±5° F. and the relative humidity of 50±5 percent.
(§2) In these tests the pesticidal activity of the compounds against aphid, mite, Southern Armyworm, Bean Beetle and house fly was rated as follows: […]

[2] = tested on: two-spotted mite (Tetranychus urticae Koch); assay: Mite Foliage Spray Test; parameters: key: A: excellent control; B: partial control; C: no control; conditions: 500 ppm, six days
Description: as §1
Adults and nymphal stages of the two-spotted mite (Tetranychus urticae Koch), reared on Tendergreen bean plants at 80±5 percent relative humidity, were the test organisms. Infested leaves from a stock culture were placed on the primary leaves of two bean plants six to eight inches in height, growing in a two-and-a-half inch clay pot. 150-200 Mites, a sufficient number for testing, transferred from the excised leaves to the fresh plants in a period of twenty four hours. Following the twenty four hour transfer period, the excised leaves were removed from the infested plants. The test compounds were formulated by diluting the stock suspension with water to give a suspension containing 500 parts of test compound per million parts of final formulation. The potted plants (one pot per compound) were placed on a revolving turntable and sprayed with 100-110 milliliters of test compound formulation by use of a DeVilbiss spray gun set at 40 psig. air pressure. This application, which lasted 25 seconds, was sufficient to wet the plants to run-off. As a control, 100-110 milliliters of a water solution containing acetone and emulsifier in the same concentrations as the test compound formulation, but containing no test compound, were also sprayed on infested plants. The sprayed plants were held at 80±5 percent relative humidity for six days, after which a mortality count of motile forms was made. Microscopic examination for motile forms was made on the leaves of the test plants. Any individual which was capable of locomotion upon prodding was considered living.
as §2

[3] = tested on: root-knot nematode (Meloidogyne incognita var. acrita); assay: Nematode Test; parameters: key: 1: severe galling; equal to untreated control; 2: moderate galling; 3: light galling; 4: very light galling; 5: no galling; conditions: 10 ml of 500 ppm formulation per jar (approx. 180 cc soil), cucumber indicator crop, approx. three weeks
Description: as §1
Infective migratory larvae of the root-knot nematode, (Meloidogyne incognita var. acrita) were reared in the greenhouse on roots of Rutgers variety tomato plant. Infected tomato plants were removed from the culture and the roots were chopped very finely. A small amount of inoculum from the roots was added to pint Mason jars containing approximately 180 cc of soil. The jars containing the inoculum and soil were capped and incubated for one week at room temperature. During this period eggs of the nematode hatched and the larvae forms migrated into the soil.
The test compounds were formulated by diluting the stock suspension with water to give a suspension containing 500 parts of test compound per million parts of final formulation. 10 milliliters of the test formulation was added to each of two jars for each dosage treated. As a control 10 milliliters of a water-acetone-emulsifier solution containing no test compound was also added to jars containing nematode larvae. The jars were capped and the contents thoroughly mixed on a kale mill for five minutes. The jars remained capped at room temperature for a period of 48 hours and the contents were then transferred to 3 inch pots. Subsequently, the pots were seeded to cucumber as an indicator crop and placed in the green house where they were cared for in the normal fashion for growing potted cucumber for approximately three weeks. These cucumber plants were then removed from the pots, the soil washed from the roots and the amount of galling visually rated.
The nematocidal toxicity has the following ratings;

[4] = tested on: bean aphid (Aphis fabae Scop.); assay: Bean Aphid Foliage Spray Test; parameters: key: A: excellent control; B: partial control; C: no control; conditions: 500 ppm, 24 hour holding period
Description: as §1
Adults and nymphal stages of the bean aphid (Aphis fabae Scop.) reared on potted dwarf nasturtium plants at 65°-70° F. and 50-70 percent relative humidity, constituted the test insects. For testing purposes, the number of aphids per pot was standardized to 100-150 by trimming plants containing excess aphids.
The test compounds were formulated by diluting the stock suspension with water to give a suspension containing 500 parts of test compound per million parts of final formulation.
The potted plants (one pot per compound tested) infested with 100-150 aphids, were placed on a revolving turntable and sprayed with 100-110 milliliters of test compound formulation by use of a DeVilbiss spray gun set at 40 psig. air pressure. This application, which tested 25 seconds, was sufficient to wet the plants to run-off. As a control, 100-110 milliliters of a water-acetone-emulsifier solution containing no test compound were also sprayed on infested plants. After spraying, the pots were placed on their sides on a sheet of white standard mimeograph paper which had been previously ruled to facilitate counting. Temperature and humidity in the test room during the 24 hour holding period were 65°-70° F. and 50-70 percent, respectively. Aphids which fell onto the paper and were unable to remain standing after being uprighted were considered dead. Aphids remaining on the plants were observed closely for movement and those which were unable to move the length of the body upon stimulation by prodding were considered dead. Percent mortality was recorded for various concentration levels.
as §2

[5] = tested on: Mexican bean beetle (Epilachna varivestis, Muls.); assay: Mexican Bean Beetle Leaf Spray Test; parameters: key: A: excellent control; B: partial control; C: no control; conditions: 500 ppm, three days
Description: as §1
Fourth instar larvae of the Mexican bean beetle (Epilachna varivestis, Muls.), reared on Tendergreen bean plants at a temperature of 80±5° F. and 50±5 percent relative humidity, were the test insects.
The test compounds were formulated by diluting the stock suspension with water to give a suspension containing 500 parts of test compound per million parts of final formulation. Potted Tendergreen bean plants of standard height and age were placed on a revolving turntable and sprayed with 100-110 milliliters of test compound formulation by use of a DeVilbiss spray gun set at 10 psig air pressure. The application, which lasted 25 seconds, was sufficient to wet plants to run-off. As a control, 100-110 milliliters of a water-acetone-emulsifier solution containing no test compound were also sprayed on infested plants. When dry, the paired leaves were separated and each was placed in a 9 centimeter Petri dish lined with moistened filter paper. Five randomly selected larvae were introduced into each dish, and the dishes were closed. The closed dishes were labeled and held at a temperature of 80±5° F. for three days. Although the larvae could easily consume the leaf within 24 to 48 hours, no more food was added. Larvae which were unable to move the length of the body, even upon stimulation, were considered dead.
as §2

[6] = tested on: southern armyworm (Prodenia eridania, (Cram.)); assay: Southern Armyworm Leaf Spray Test; parameters: key: A: excellent control; B: partial control; C: no control; conditions: 500 ppm, three days
Description: as §1
Larvae of the southern armyworm (Prodenia eridania, (Cram.)), reared on Tendergreen bean plants at a temperature of 80±5° F. and a relative humidity of 50±5 percent, constituted the test insects.
The test compounds were formulated by diluting the stock suspension with water to give a suspension containing 500 parts of test compound per million parts of final formulation. Potted Tendergreen bean plants of standard height and age were placed on a revolving turntable and sprayed with 100-110 milliliters of test compound formulation by use of a DeVilbiss spray gun set at 10 psig air pressure. This application, which tested 25 seconds, was sufficient to wet plants to run-off. As a control, 100-110 milliliters of a water-acetone-emulsifier solution containing no test compound were also sprayed on infested plants. When dry, the paired leaves were separated and each one was placed in a 9 centimeter Petri dish lined with moistened filter paper. Five randomly selected larvae were introduced into each dish and the dishes were closed. The closed dishes were labeled and held at 80°-85° F. for three days. Although the larvae could easily consume the whole leaf within twenty-four hours, no more food was added. Larvae which were unable to move the length of the body, even upon stimulation by prodding, were considered dead. Percent mortality was recorded for various concentration levels.
as §2

SMILES | House-Fly control rating [1] | 2-Spotted Mite control rating [2] | Root-Knot Nematode galling rating [3] | Bean Aphid control rating [4] | Mexican Bean Beetle control rating [5] | Southern Armyworm control rating [6]
CC(=NOC(=O)N(C)SSN(C)C(=O)ON=C(C)[S+](C)[O-])[S+](C)[O-] (stereo not shown) [N,N'--Bis-[1-Methylsulfinylacetaldehyde O--(N--methylcarbamoyl)oxime] disulfide] | A | C | 1 | C | A | B
CN=C1SC(=NOC(=O)N(C)SSN(C)C(=O)ON=C2SC(=NC)SC2(C)C)C(C)(C)S1 [N,N'--Bis-[2-Methylimino-4,4-dimethyl-5-(O--(N--methyl-carbamoyl)oximino-1,3-dithiolane]disulfide] | A | B | 4 | A | A | A
CC(C)N1C(=O)C(C)(C)SC1=NOC(=O)N(C)SSN(C)C(=O)ON=C1SC(C)(C)C(=O)N1C(C)C [N,N'--Bis-[3-Isopropyl-5,5-dimethyl-2-(O--(N--methylcarbamoyl)oximino)-1,3-thiazolidin-4-one] disulfide] | C | C |  | A | A | B
CC(=NOC(=O)N(C)SSN(C)C(=O)ON=C(C)SC(C)C)SC(C)C [N,N'-Bis-[1-Isopropylthioacetaldehyde O-(N-methylcarbamoyl)oxime]disulfide] | A | A | 4 | A | A | A
CN(SSN(C)C(=O)ON=CC(C)(C)S(C)(=O)=O)C(=O)ON=CC(C)(C)S(C)(=O)=O [N,N'-Bis-[2-Methylsulfonyl-2-methylpropionaldehyde O-(N-methylcarbamoyl)oxime]disulfide] | A | B | 4 | C | C | C
CN(SSN(C)C(=O)ON=C1SCCS1)C(=O)ON=C1SCCS1 [N,N'-bis-[2-(O-(N-Methylcarbamoyl)oximino)-1,3-dithiolane]disulfide] | A | C | 5 | A | A | A
CN(SSN(C)C(=O)ON=CC(C)(C)C#N)C(=O)ON=CC(C)(C)C#N [N,N'-bis-[2-Cyano-2-methylpropionaldehyde O-(N-methylcarbamoyl)oxime]disulfide] | A | A | 4 | A | A | A
CSC(C)(C)C=NOC(=O)N(C)SSN(C)C(=O)ON=CC(C)(C)SC [N,N'-bis-[2-methylthio-2-methylpropionaldehyde O-(N-methylcarbamoyl)oxime]disulfide] | A | A | 5 | A | A | A
CN1CCSC(=NOC(=O)N(C)SSN(C)C(=O)ON=C2SCCN(C)C2=O)C1=O [N,N'-bis-[4-Methyl-2-(O-(N-methylcarbamoyl)oximino)tetrahydro-1,4-thiazin-3-one]disulfide] | A | A |  | A | A | A
CC1OCSC1=NOC(=O)N(C)SSN(C)C(=O)ON=C1SCOC1C (stereo not shown) [N,N'-bis-[5-Methyl-4-(O-(N-methylcarbamoyl)oximino)-1,3-oxathiolane]disulfide] | A | A | 1 | A | A | A
